Laboratory results reported in patent publication US20070209950A1, “METHODS AND DEVICES FOR THE DETECTION AND MEASUREMENT OF FREE METALS IN FLUIDS AND METHODS FOR DIAGNOSING METAL-RELATED DISEASES AND FOR DETERMINING PHARMACOLOGIC DOSING REGIMENS” (priority 2006, published 2007).

Tests used:
[1] = target: apo-glucose dehydrogenase (Acinetobacter calcoaceticus, UniProt P13650); assay: activation of apo-glucose dehydrogenase by co-factor PQQ, electrochemical current; type: biochemical
Text: FIG. 8 is a schematic showing a specific example of glucose being oxidized to gluconone by the holo-enzyme glucose dehydrogenase. In this case the co-enzyme is PQQ and a common mediator used to transducer electrical current through a working electrode is ferrocene. This is another type of configuration in glucometers today.
FIG. 9 is a schematic showing the loss of glucose dehydrogenase activity when the specific co-factor PQQ is removed. As an apo-enzyme, […] is not capable of oxidizing glucose. As a result, transduction of current is blocked.
PQQ was added to apo-enzyme in doses ranging from 100 pM to 100 nM. […] In this case, distinctions were observed by 60 sec.

[2] = target: T1, ceruloplasmin (Homo sapiens, UniProt P00450); conditions: order of magnitude; read-out: Kd for copper bound to ceruloplasmin; cited from earlier work
T1 sequence (P00450 20-1065): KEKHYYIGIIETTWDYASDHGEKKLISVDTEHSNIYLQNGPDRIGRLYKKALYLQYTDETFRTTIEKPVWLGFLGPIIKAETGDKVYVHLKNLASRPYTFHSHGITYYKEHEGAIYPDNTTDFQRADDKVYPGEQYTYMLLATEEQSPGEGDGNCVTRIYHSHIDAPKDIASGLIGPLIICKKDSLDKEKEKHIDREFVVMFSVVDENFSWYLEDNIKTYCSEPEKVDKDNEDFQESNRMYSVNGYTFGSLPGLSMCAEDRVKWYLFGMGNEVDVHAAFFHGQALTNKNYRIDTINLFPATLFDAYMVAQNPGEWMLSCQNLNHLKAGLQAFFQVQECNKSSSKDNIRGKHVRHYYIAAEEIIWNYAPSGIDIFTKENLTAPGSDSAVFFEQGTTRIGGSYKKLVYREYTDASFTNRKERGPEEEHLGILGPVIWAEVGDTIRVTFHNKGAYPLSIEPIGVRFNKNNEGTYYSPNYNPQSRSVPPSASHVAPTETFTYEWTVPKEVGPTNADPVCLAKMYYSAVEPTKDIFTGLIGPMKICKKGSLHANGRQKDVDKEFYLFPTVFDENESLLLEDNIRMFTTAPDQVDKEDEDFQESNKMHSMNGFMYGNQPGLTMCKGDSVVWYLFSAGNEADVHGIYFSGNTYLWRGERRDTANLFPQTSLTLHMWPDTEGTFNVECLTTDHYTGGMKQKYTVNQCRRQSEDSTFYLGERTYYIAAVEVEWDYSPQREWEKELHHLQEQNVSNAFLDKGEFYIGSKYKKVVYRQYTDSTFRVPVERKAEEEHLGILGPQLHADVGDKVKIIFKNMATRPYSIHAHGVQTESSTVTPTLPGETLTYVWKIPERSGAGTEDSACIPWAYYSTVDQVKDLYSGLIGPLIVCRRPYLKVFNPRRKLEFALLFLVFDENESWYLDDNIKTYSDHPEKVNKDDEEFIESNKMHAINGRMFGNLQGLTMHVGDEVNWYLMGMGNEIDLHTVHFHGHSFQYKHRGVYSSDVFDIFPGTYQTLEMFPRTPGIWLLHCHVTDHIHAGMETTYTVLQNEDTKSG

Sequence of apo-glucose dehydrogenase (P13650 25-478): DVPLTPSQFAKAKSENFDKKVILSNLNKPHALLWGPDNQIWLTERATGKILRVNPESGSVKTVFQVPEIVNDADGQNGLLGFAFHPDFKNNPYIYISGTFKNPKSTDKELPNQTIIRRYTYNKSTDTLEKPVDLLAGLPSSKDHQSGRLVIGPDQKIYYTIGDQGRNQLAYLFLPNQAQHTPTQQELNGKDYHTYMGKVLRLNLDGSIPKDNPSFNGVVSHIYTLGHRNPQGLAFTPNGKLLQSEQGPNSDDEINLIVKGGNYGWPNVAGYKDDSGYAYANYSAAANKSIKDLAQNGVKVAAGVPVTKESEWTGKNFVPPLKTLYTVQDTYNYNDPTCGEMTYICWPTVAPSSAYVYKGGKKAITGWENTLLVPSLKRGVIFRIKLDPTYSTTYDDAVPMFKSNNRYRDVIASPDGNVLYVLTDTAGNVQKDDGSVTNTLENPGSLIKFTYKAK

Structure (SMILES)	outward current on addition of co-factor ([1]; FIG. 10, with PQQ)	outward current on addition of co-factor ([1]; FIG. 17, PQQ added to apo-enzyme in doses from 100 pM to 100 nM)	Kd [2]
O=C(O)c1cc(C(=O)O)c2c(n1)C(=O)C(=O)c1cc(C(=O)O)[nH]c1-2 [PQQ]	outward current (more negative) results	increase in the measurement of outward current	
[Cu] [copper]			~0.01 nM
